# From patent publication US6677368B2, “4-aryl substituted indolinones” (Sugen, Inc., priority 2000, dated 2004)
# What was measured:
# MET = target: T1, MET (Homo sapiens, UniProt P08581); assay: MET transphosphorylation assay; format: biochemical; conditions: GST fusion protein containing the Met kinase domain, poly(glu-tyr) substrate
# T1 construct: Purified GST fusion protein containing the Met kinase domain, SUGEN, Inc
# Experimental: MET TRANSPHOSPHORYLATION ASSAY
# This assay is used to measure phosphotyrosine levels on a poly(glutamic acid:tyrosine, 4:1) substrate as a means for identifying agonists/antagonists of met transphosphorylation of the substrate.
# 1. Corning 96-well ELISA plates, Corning Catalog #25805-96.
# 2. Poly(glu-tyr), 4:1, Sigma, Cat. No; P 0275.
# 5. Blocking Buffer: Dissolve 25 g Bovine Serum Albumin, Sigma Cat. No A-7888, in 500 ml PBS, filter through a […] filter.
# 6. Purified GST fusion protein containing the Met kinase domain, SUGEN, Inc.
# 8. 10% aqueous (MilliQue H2O) DMSO.
# 9. 10 mM aqueous (dH2O) Adenosine-5′-triphosphate, Sigma Cat. No. A-5394.
# 10. 2×Kinase Dilution Buffer: for 100 ml, mix 10 mL 1M HEPES at pH 7.5 with 0.4 mL 5% BSA/PBS, 0.2 mL 0.1 M sodium orthovanadate and 1 mL 5M sodium chloride in 88.4 mL dH2O.
# 11. 4×ATP Reaction Mixture: for 10 mL, mix 0.4 mL 1 M manganese chloride and 0.02 mL 0.1 M ATP in 9.56 mL dH2O.
# 12. 4×Negative Controls Mixture: for 10 mL, mix 0.4 mL 1 M manganese chloride in 9.6 mL dH2O.
# 13. NUNC 96-well V bottom polypropylene plates, Applied Scientific Catalog #S-72092
# 15. Antibody Dilution Buffer: for 100 mL, mix 10 mL 5% BSA/PBS, 0.5 mL 5% Carnation® Instant Milk in PBS and 0.1 mL 0.1 M sodium orthovanadate in 88.4 mL TBST.
# 16. Rabbit polyclonal antophosphotyrosine antibody, SUGEN, Inc.
# 17. Goat anti-rabbit horseradish peroxidase conjugated antibody, Biosource, Inc.
# 18. ABTS Solution: for 1 L, mix 19.21 g citric acid, 35.49 g Na2HPO4 and 500 mg ABTS with sufficient dH2O to make 1 L.
# 19. ABTS/H2O2: mix 15 mL ABST solution with 2μL H2O2 five minutes before use.
# 1. Coat ELISA plates with 2 μg Poly(Glu-Tyr) in 100 μL PBS, hold overnight at 4° C.
# 2. Block plate with 150 μL of 5% BSA/PBS for 60 min.
# 3. Wash plate twice with PBS then once with 50 mM Hepes buffer pH 7.4.
# 4. Add 50 μl of the diluted kinase to all wells. (Purified kinase is diluted with Kinase Dilution Buffer. Final concentration should be 10 ng/well.)
# 5. Add 25 μL of the test compound (in 4% DMSO) or DMSO alone (4% in dH2O) for controls to plate.
# 6. Incubate the kinase/compound mixture for 15 minutes.
# 7. Add 25 μL of 40 mM MnCl2 to the negative control wells.
# 8. Add 25 μL ATP/MnCl2 mixture to the all other wells (except the negative controls). Incubate for 5 min.
# 9. Add 25 μL 500 mM EDTA to stop reaction.
# 10. Wash plate 3× with TBST.
# 11. Add 100 μL rabbit polyclonal anti-Ptyr diluted 1:10,000 in Antibody Dilution Buffer to each well. Incubate, with shaking, at room temperature for one hour.
# 12. Wash plate 3× with TBST.
# 13. Dilute Biosource HRP conjugated anti-rabbit antibody 1:6,000 in Antibody Dilution buffer. Add 100 μL per well and incubate at room temperature, with shaking, for one hour.
# 14. Wash plate 1× with PBS.
# 15. Add 100 μl of ABTS/H2O2 solution to each well.
# 16. If necessary, stop the development reaction with the addition of 100 μl of 0.2M HCl per well.
# 17. Read plate on Dynatech MR7000 ELISA reader with the test filter at 410 nM and the reference filter at 630 nM.
# FGFR1 = FGFR1 (Homo sapiens, UniProt P11362); assay: FGFR1 bioassay (ELISA, in vitro kinase activity); format: biochemical; conditions: purified GST-FGFR1, poly(Glu-Tyr) substrate
# Experimental: This assay is used to measure the in vitro kinase activity of FGF1-R in an ELISA assay.
# 1. Costar 96-well ELISA plates (Corning Catalog #3369).
# 2. Poly(Glu-Tyr) (Sigma Catalog #P0275).
# 4. 50 mM Hepes Buffer Solution.
# 5. Blocking Buffer (5% BSA/PBS).
# 6. Purified GST-FGFR1 (SUGEN, Inc.)
# 7. Kinase Dilution Buffer. Mix 500 μl 1M Hepes (GIBCO), 20 μl 5% BSA/PBS, 10 μl 100 mM sodium orthovanadate and 50 μl 5M NaCl.
# 9. ATP/MnCl2 phosphorylation mix: mix 20 μL ATP, 400 μL 1M MnCl2 and 9.56 ml dH2O.
# 10. NUNC 96-well V bottom polypropylene plates (Applied Scientific Catalog #AS-72092).
# 12. 0.05% TBST Add 500 μL TWEEN to 1 liter TBS.
# 13. Rabbit polyclonal anti-phosphotyrosine serum (SUGEN, Inc.).
# 14. Goat anti-rabbit IgG peroxidase conjugate (Biosource, Catalog #ALI0404).
# 1. Coat Costar 96 well ELISA plates with 1 μg per well Poly(Glu-Tyr) in 100 μl PBS. Store overnight at 4° C.
# 2. Wash coated plates once with PBS.
# 3. Add 150 μL of 5%BSA/PBS Blocking Buffer to each well. Incubate, with shaking, for 1 hr at room temperature.
# 4. Wash plate 2× with PBS, then once with 50 mM Hepes. Pat plates on a paper towel to remove excess liquid and bubbles.
# 5. Add 25 μL of 0.4 mM test compound in 4% DMSO or 4% DMSO alone (controls) to plate.
# 6. Dilute purified GST-FGFR1 in Kinase Dilution Buffer (5 ng kinase/50 μl KDB/well).
# 7. Add 50 μL of diluted kinase to each well.
# 8. Start kinase reaction by adding 25 μl/well of freshly prepared ATP/Mn++ (0.4 ml 1M MnCl2, 40 μL 10 mM ATP, 9.56 ml dH2O), freshly prepared).
# 9. Stop reaction with 25 μL of 0.5M EDTA.
# 10. Wash plate 4× with fresh TBST.
# 11. Make up Antibody Dilution Buffer: For 50 ml, mix 5 ml of 5% BSA, 250 μl of 5% milk and 50 μl of 100 mM sodium vanadate, bring to final volume with 0.05% TBST.
# 12. Add 100 μl per well of anti-phosphotyrosine (1:10000 dilution in ADB). Incubate, with shaking for 1 hr. at room temperature.
# 14. Add 100 μl per well of Biosource Goat anti-rabbit IgG peroxidase conjugate (1:6000 dilution in ADB). Incubate, with shaking for 1 hr. at room temperature.
# 15. Wash as in step 10 and then with PBS to remove bubbles and excess TWEEN.
# 16. Add 100 μl of ABTS/H2O2 solution to each well.
# 17. Incubate, with shaking, for 10 to 20 minutes. Remove any bubbles.
# 18. Read assay on Dynatech MR7000 ELISA reader: test filter at 410 nM, reference filter at 630 nM.
# T1 sequence (P08581 1078-1345 limits assumed): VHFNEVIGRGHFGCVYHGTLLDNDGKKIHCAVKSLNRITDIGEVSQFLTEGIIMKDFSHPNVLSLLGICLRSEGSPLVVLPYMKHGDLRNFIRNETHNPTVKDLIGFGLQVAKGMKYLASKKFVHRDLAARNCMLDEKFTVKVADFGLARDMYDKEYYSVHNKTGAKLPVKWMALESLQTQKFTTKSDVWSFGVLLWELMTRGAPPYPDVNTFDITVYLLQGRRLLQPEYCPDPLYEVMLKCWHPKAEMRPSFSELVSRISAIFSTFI
# Chain of FGFR1 (P11362 22-822, species assumed): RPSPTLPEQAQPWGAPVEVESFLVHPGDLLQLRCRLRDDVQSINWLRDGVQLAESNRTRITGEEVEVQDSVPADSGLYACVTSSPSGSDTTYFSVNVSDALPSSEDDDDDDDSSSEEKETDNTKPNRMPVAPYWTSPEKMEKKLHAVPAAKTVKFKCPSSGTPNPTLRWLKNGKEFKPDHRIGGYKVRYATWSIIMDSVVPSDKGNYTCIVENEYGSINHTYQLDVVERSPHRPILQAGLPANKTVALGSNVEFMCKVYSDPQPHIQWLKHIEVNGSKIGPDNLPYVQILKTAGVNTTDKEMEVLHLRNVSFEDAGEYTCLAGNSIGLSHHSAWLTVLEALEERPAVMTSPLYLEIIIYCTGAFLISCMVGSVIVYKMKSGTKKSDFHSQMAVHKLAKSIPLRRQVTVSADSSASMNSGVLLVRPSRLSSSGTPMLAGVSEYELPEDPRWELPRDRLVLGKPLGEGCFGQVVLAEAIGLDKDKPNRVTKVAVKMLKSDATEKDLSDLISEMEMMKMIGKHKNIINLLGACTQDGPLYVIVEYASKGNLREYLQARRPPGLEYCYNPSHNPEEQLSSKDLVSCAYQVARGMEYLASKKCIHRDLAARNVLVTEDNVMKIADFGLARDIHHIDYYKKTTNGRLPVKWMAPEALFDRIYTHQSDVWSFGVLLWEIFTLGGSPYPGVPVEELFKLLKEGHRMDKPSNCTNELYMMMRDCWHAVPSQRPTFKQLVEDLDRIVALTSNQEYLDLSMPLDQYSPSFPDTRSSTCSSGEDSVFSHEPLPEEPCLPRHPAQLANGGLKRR
IC50 (MET) [nM],IC50 (FGFR1) [nM],SMILES
59,240,"Cc1cc(C(=O)NCCN2CCCC2)c(/C=C2\C(=O)Nc3cccc(-c4ccc(F)c(Cl)c4)c32)[nH]1 [Example 119, 2-[4-(3-Chloro-4-fluoro-phenyl)-2-oxo-1,2-dihydro-indol-3-ylidenemethyl]-5-methyl-1H-pyrrole-3-carboxylic Acid (2-Pyrrolidin-1-yl-ethyl)-amide]"
680,520,"CCN(CC)CCNC(=O)c1c(C)[nH]c(/C=C2\C(=O)Nc3cccc(-c4ccc(OC(F)(F)F)cc4)c32)c1C [Example 140, 2,4-Dimethyl-5-[2-oxo-4-(4-trifluoromethoxy-phenyl)-1,2-dihydro-indol-3-ylidenemethyl]-1H-pyrrole-3-carboxylic Acid (2-Diethylamino-ethyl)-amide]"
